The text below walks through data of US5212160A, “3-L-(5-thioxo-L-prolyl)thiazolidine-4-carboxylic acid and derivatives therefrom, processes for the preparation thereof and pharmaceutical compositions containing them” (Poli Industria Chimica S.p.A., priority 1990, dated 1993).

The nature of assay [1]: Antitoxic activity: protection of rats against acetaldehyde toxicity. It counts as in vivo, COBS CD(SD) Rats. As to conditions: 0.5 mM/kg oral (2 administrations); acetaldehyde 2150 mg/kg per os; mortality up to 72 hours. Here is the method: (§1) The antitoxic activity was tested by determining the capability of the compounds of the invention to protect rats against formaldehyde and acetaldehyde toxicities (Sprince et al., Agents and Actions, 9, 407, 1979). COBS CD(SD) Rats (C. River) weighing 180-200 g fasted since the night before were orally administered with the test compounds half an hour before and 5 hours after the oral administration of the toxic agent. Formaldehyde was administered at the dose of 900 mg/kg per os and acetaldehyde at the dose of 2150 mg/kg per os; mortality was controlled up to 72 hours later. […] The activity of the compounds of the invention is similar to that of ascorbic acid and L-cysteine. Since acetaldehyde and formaldehyde are an important portion of the toxic agents contained in cigarette smoke, these novel compounds are very important in the treatment of all the lung pathologies connected to tobacco abuse or to atmosphere pollution. The antiradical activity was tested against doxorubicin mortality in the mouse (R. D. Olson et al., Life Sci., 29, 1393, 1981). Groups of 10 male CD-1 mice (C. River) weighing 18-20 g were treated orally with the tested compounds; one hour later doxorubicin was administered at the dose of 22 mg/kg i.p. (10 ml/kg). […]

A short description of assay [2]: Antitoxic activity: protection of rats against formaldehyde toxicity. The assay is classed as in vivo, COBS CD(SD) Rats. As to conditions: 0.5 mM/kg oral (2 administrations); formaldehyde 900 mg/kg per os; mortality up to 72 hours. Here is the method: as §1
Assay [3] has as its system prednisolone-immunodepressed murine peritoneal macrophages. As to the kind of experiment: Superoxide anion production by prednisolone-immunodepressed murine peritoneal macrophages (cytochrome C reduction, PMA stimulated). It counts as in vivo, mice. As to conditions: for Reduced cytochrome C nmoles/1 × 10^6 macrophages (mean ± s.e.): 200 mg/kg/die i.p. + prednisolone 0.5 mg/kg/die s.c., 11 days, macrophages stimulated with phorbol myristate acetate; for Activity on superoxide anion production compared with PGT: same weight dosage as PGT. Here is the method:
Since the production of the superoxide anion (O2.) plays an important role in macrophage antimicrobial activity (N. P. Cumming, M. J. Pabst, J. Exp. Med., 152, 1659, 1980), the test for stimulation of the superoxide anion production in macrophages by medicaments is very important in the evaluation of the immuno-stimulating activity. Therefore, O2. production in isolated peritoneal macrophages from prednisolone-immunodepressed animals treated with the compounds of the invention was evaluated. Mice were treated subcutaneously for 11 days with 0.5 mg/kg/day with prednisolone and with the tested compounds at a dose of 100 mg/kg intraperitoneally twice a day, whereas the day of killing they received the only compounds of the invention. Then macrophages were isolated by means of peritoneal washing and cultured in RPMI-1640 added with 10% bovine foetal serum at a concentration of 1×10^6 cells/ml and at a temperature of +37° C. 1 ml aliquots of the cell suspension were incubated for 15 min. at 37° C. with cytochrome C from horse hearth and stimulated with phorbol myristate acetate (H. Nielsen, Eur. J. Clin. Pharmacol., 30, 99, 1986). After that, a spectrophotometric determination of reduced ferricytochrome C at λ=550 nm was carried out, using an extinction coefficient E (550)=29.5 mM.

Assay [4] in a line: Antiradical activity: protection against doxorubicin mortality in the mouse. It counts as in vivo, male CD-1 mice. As to conditions: 0.5 mM/kg per os 4 times in two days; doxorubicin 22 mg/kg i.p.; mortality checked for 14 days. Here is the method: as §1

Where a SMILES comes first, the peptide text is derived from it. [ ]: non-standard residue; d: D form. pGlu = O=C1CC[C@@H](C(=O)O)N1; Thz = O=C(O)[C@@H]1CSCN1

In the case of `CCOC(=O)[C@@H]1CSCN1C(=O)[C@@H]1CCC(=S)N1` [Ia, Ethyl 3-L-(L-5-thioxoprolyl)thiazolidine-4-carboxylate], the “Protection against acetaldehyde mortality” value in assay [1] stood at 70%. In assay [2], the “Protection against formaldehyde mortality” value is 60%. In assay [3], the “Reduced cytochrome C nmoles/1 × 10^6 macrophages (mean ± s.e.)” value is listed as 9.15 ± 0.68 nmoles/1 × 10^6 macrophages and the “Activity on superoxide anion production compared with PGT” value is given as “higher activities than that of PGT”. For the same compound, the “Protection against doxorubicin mortality” value in assay [4] was found to be 40%.

For `O=C(O)[C@@H]1CSCN1C(=O)[C@@H]1CCC(=S)N1` [Ib, 3-L-(5-thioxoprolyl)thiazolidine-4-carboxylic acid], the “Protection against acetaldehyde mortality” value in assay [1] turned out to be 60%. The “Protection against formaldehyde mortality” value in assay [2] came to 70%. In assay [3], the “Reduced cytochrome C nmoles/1 × 10^6 macrophages (mean ± s.e.)” value was 9.17 ± 0.68 nmoles/1 × 10^6 macrophages and the “Activity on superoxide anion production compared with PGT” value is “higher activities than that of PGT”. For the same compound, the “Protection against doxorubicin mortality” value in assay [4] was determined as 50%.

As to `O=C1CC[C@@H](C(=O)N2CSC[C@H]2C(=O)O)N1` [PGT, 3-L-pyroglutamyl-L-thiazolidine-4-carboxylic acid, reference compound] ([pGlu]-[Thz]-OH), the “Reduced cytochrome C nmoles/1 × 10^6 macrophages (mean ± s.e.)” value in assay [3] is 8.33 ± 0.77 nmoles/1 × 10^6 macrophages.
